System: skin equivalent marketed by EPISKIN (reconstructed epidermis)
Assay: Synthesis of epidermal ceramides in reconstructed epidermis (14C acetate labelling, HPTLC, densitometry)
Type: cell-based
Conditions: each compound alone at 15 μg/ml, relative to the untreated control; for % increase in ceramides in the epidermis equivalent: 24 hours of treatment; for % increase in the ceramides in the epidermis equivalent: 48 hours of treatment
Protocol: Ascorbic acid and derivatives thereof were tested on a skin equivalent marketed by EPISKIN (LYON, France), after culturing the latter for 7 days. The culture and test media were those included in the kit marketed by the supplier. Each compound was tested individually at 15 μg/ml and in combination with 5 μg/ml (as vitamin C equivalent), in the culture medium. The reconstructed epidermes were treated for 24 hours. The control consisted of an identical epidermis equivalent which was subjected to topical application of culture medium without the test compound.
The reconstructed epidermis was incubated overnight with ^14C acetate (2 μCi/ml) before topical application of vitamin C and derivatives thereof, to monitor the synthesis of the lipids.
At the end of the incubation period, the epidermis equivalent was detached from its collagenic support. The preparation of the lipids of the epidermis equivalent and their analysis by HPTLC or high-performance thin-layer chromatography, were carried out according to the technique and with the buffers described by M. Ponec (1991, Adv. Lipid Res., 24:83-117).
At the end of the migration, densitometric analysis of the autoradiograph was carried out using a densitometer of the FUJI brand, model 1800.
The procedure described in Example 1 was repeated, except that the test was performed over 48 hours instead of 24 hours. In addition, only vitamin C and vitamin CP were tested, the mixture of the two being formulated using 7.5 μg/ml of each vitamin.

Structure (SMILES)	% increase in ceramides in the epidermis equivalent	% increase in the ceramides in the epidermis equivalent
O=C1O[C@H]([C@@H](O)CO)C(O)=C1O [Vitamin C, ascorbic acid]	54%	126%
O=C1O[C@H]([C@@H](O)CO)C(O)=C1O[C@H]1O[C@H](CO)[C@@H](O)[C@H](O)[C@H]1O [Vitamin CG, ascorbyl 2-glucoside]	69%	–
O=C1O[C@H]([C@@H](O)CO)C([O-])=C1OP(=O)([O-])[O-].O=C1O[C@H]([C@@H](O)CO)C([O-])=C1OP(=O)([O-])[O-].[Mg+2].[Mg+2].[Mg+2] [Vitamin CP, Magnesium ascorbyl phosphate]	99%	148%
